Biological target: T1, human H1 receptor (Homo sapiens, UniProt P35367)
T1 construct: expressed in transfected cells; host or cells: CHO cells (crude membranes)
Assay: Human histamine H1 receptor binding assay
Details: competition with 1.5 nM [pyridinyl-5-3H] Pyrilamine, crude membranes of CHO cells transfected with human H1 receptor; Ki from IC50 by Cheng-Prusoff
Procedure: Compounds of the present invention may be evaluated for binding to the histamine H1 receptor by a standard binding assay. […] Pyrilamine (˜30 Ci/mmol, Amersham TRK608) in the presence of varying concentrations of competing ligand. Non-specific binding is determined in the presence of excess (1 μM) doxepin. Bound and free ligand are separated by rapid vacuum filtration using a Packard 96-well cell harvester onto UniFilter GF/C filter plates (PerkinElmer) that has been pretreated with 1% polyethyleneimine. The filter plates are then washed with 600 μl phosphate buffered saline containing 0.01% (v/v) Triton-X100. Bound radioligand is determined by scintillation counting using a TopCount-NXT (Packard). Binding data is analyzed by nonlinear, least-squares curve fitting algorithms using GraphPad Prism (GraphPad Software, Inc. San Diego, Calif.) or ActivityBase (IDBS, Guildford, Surrey, UK).

T1 sequence (P35367 whole entry): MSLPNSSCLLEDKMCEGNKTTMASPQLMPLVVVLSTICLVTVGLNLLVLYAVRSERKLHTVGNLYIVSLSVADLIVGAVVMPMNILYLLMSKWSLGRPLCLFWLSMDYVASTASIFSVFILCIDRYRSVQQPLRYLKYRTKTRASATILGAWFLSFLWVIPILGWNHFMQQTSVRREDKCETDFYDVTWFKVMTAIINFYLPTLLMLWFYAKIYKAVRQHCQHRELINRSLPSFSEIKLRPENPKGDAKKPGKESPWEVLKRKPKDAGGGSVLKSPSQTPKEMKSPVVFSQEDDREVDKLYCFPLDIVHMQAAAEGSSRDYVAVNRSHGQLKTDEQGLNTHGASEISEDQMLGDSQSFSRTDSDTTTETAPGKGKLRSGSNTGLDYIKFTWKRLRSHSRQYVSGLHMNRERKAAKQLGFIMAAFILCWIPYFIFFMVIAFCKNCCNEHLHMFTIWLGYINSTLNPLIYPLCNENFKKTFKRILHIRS

## C[C@H](c1cccnc1F)c1c(CCN(C)C)sc2ccccc12 [Compound 15-8, Dimethyl-(2-{3-[(R)-1-(2-fluoro-pyridin-3-yl)-ethyl]-benzo[b]thiophen-2-yl}-ethyl)-amine]
  Ki: ≤ 1 µM

## CN(C)CCc1sc2ccccc2c1Cc1cnns1 [Compound 13-12, Dimethyl-[2-(3-[1,2,3]thiadiazol-5-ylmethyl-benzo[b]thiophen-2-yl)-ethyl]-amine]
  Ki: ≤ 1 µM

## C[C@H](c1ncccc1F)c1c(CCN(C)C)sc2ccccc12 [Compound 18-5, (2-{3-[(S)-1-(3-Fluoro-pyridin-2-yl)-ethyl]-benzo[b]thiophen-2-yl}-ethyl)-dimethyl-amine]
  Ki: ≤ 1 µM

## C[C@H](c1ccccn1)c1c(CCN2CCC2)sc2ccccc12 [Compound 20-9, 2-{(S)-1-[2-(2-Azetidin-1-yl-ethyl)-benzo[b]thiophen-3-yl]-ethyl}-pyridine]
  Ki: ≤ 1 µM

## COc1cccnc1Cc1c(CCN(C)C)sc2ccccc12 [Compound 13-7, {2-[3-(3-Methoxy-pyridin-2-ylmethyl)-benzo[b]thiophen-2-yl]-ethyl}-dimethyl-amine]
  Ki: ≤ 1 µM

## C[C@H](c1cncs1)c1c(CCN(C)C)sc2ccccc12 [Compound 17-4, Dimethyl-{2-[3-((S)-1-thiazol-5-yl-ethyl)-benzo[b]thiophen-2-yl]-ethyl}-amine]
  Ki: ≤ 1 µM

## COc1ncccc1[C@H](C)c1c(CCN(C)C)sc2ccccc12 [Compound 15-6, Dimethyl-(2-{3-[(S)-1-(2-methoxy-pyridin-3-yl)-ethyl]-benzo[b]thiophen-2-yl}-ethyl)-amine]
  Ki: ≤ 1 µM

## C[C@H](c1ccccn1)c1c(CCN2CCCC2)sc2ccccc12 [Compound 20-2, 2-{(S)-1-[2-(2-Pyrrolidin-1-yl-ethyl)-benzo[b]thiophen-3-yl]-ethyl}-pyridine]
  Ki: ≤ 1 µM

## CCCN(C)CCc1sc2ccccc2c1C(C)c1ccccn1 (stereo not shown) [Compound 9-2, Methyl-propyl-{2-[3-(1-pyridin-2-yl-ethyl)-benzo[b]thiophen-2-yl]-ethyl}-amine]
  Ki: ≤ 1 µM

## C[C@@H](c1ncccc1F)c1c(CCN(C)C)sc2ccccc12 [Compound 18-4, (2-{3-[(R)-1-(3-Fluoro-pyridin-2-yl)-ethyl]-benzo[b]thiophen-2-yl}-ethyl)-dimethyl-amine]
  Ki: ≤ 1 µM

## Cc1ccc(C(C)c2c(CCN(C)C)sc3ccccc23)cn1 (stereo not shown) [Compound 10-3, Dimethyl-(2-{3-[1-(6-methyl-pyridin-3-yl)-ethyl]-benzo[b]thiophen-2-yl}-ethyl)-amine]
  Ki: ≤ 1 µM

## C=C(c1ccccn1)c1c(CCN(C)C)sc2ccccc12 [Compound 6-2, Dimethyl-{2-[3-(1-pyridin-2-yl-vinyl)-benzo[b]thiophen-2-yl]-ethyl}-amine]
  Ki: ≤ 1 µM

## CC(c1nccs1)c1c(CCN(C)C)sc2ccccc12 (stereo not shown) [Compound 8-3, Dimethyl-{2-[3-(1-thiazol-2-yl-ethyl)-benzo[b]thiophen-2-yl]-ethyl}-amine]
  Ki: ≤ 1 µM

## CN(C)CCc1sc2ccccc2c1Cc1cnccn1 [Compound 13-9, Dimethyl-[2-(3-pyrazin-2-ylmethyl-benzo[b]thiophen-2-yl)-ethyl]-amine]
  Ki: ≤ 1 µM

## CN(C)CCc1sc2ccccc2c1Cc1nn(C)cc1Cl [Compound 13-14, {2-[3-(4-Chloro-1-methyl-1H-pyrazol-3-ylmethyl)-benzo[b]thiophen-2-yl]-ethyl}-dimethyl-amine]
  Ki: ≤ 1 µM

## C[C@@H](c1cscn1)c1c(CCN(C)C)sc2ccccc12 [Compound 16-3, Dimethyl-{2-[3-((R)-1-thiazol-4-yl-ethyl)-benzo[b]thiophen-2-yl]-ethyl}-amine]
  Ki: ≤ 1 µM

## CN(C)CCc1sc2ccccc2c1Cc1cncnc1 [Compound 13-4, Dimethyl-[2-(3-pyrimidin-5-ylmethyl-benzo[b]thiophen-2-yl)-ethyl]-amine]
  Ki: ≤ 1 µM

## CC(c1cnccn1)c1c(CCN(C)C)sc2ccccc12 (stereo not shown) [Compound 11-2, Dimethyl-{2-[3-(1-pyrazin-2-yl-ethyl)-benzo[b]thiophen-2-yl]-ethyl}-amine]
  Ki: ≤ 1 µM

## CN(C)CCc1sc2ccccc2c1Cc1cncn1C [Compound 13-11, Dimethyl-{2-[3-(3-methyl-3H-imidazol-4-ylmethyl)-benzo[b]thiophen-2-yl]-ethyl}-amine]
  Ki: ≤ 1 µM

## CN(C)CCc1sc2ccccc2c1C(C)(O)c1ccccn1 (stereo not shown) [Compound 6-1, 1-[2-(2-Dimethylamino-ethyl)-benzo[b]thiophen-3-yl]-1-pyridin-2-yl-ethanol]
  Ki: ≤ 1 µM

## CC(c1ccccn1)c1c(CCN(C)C)sc2ccccc12 (stereo not shown) [Compound 6-3, Dimethyl-{2-[3-(1-pyridin-2-yl-ethyl)-benzo[b]thiophen-2-yl]-ethyl}-amine]
  Ki: ≤ 1 µM

## CN(C)CCc1sc2ccccc2c1C(C)(O)c1ccc(F)cc1 (stereo not shown) [Compound 3-3, 1-[2-(2-Dimethylamino-ethyl)-benzo[b]thiophen-3-yl]-1-(4-fluoro-phenyl)-ethanol]
  Ki: ≤ 1 µM

## C[C@H](c1ccccn1)c1c(CCN(C)C)sc2ccccc12 [Compound 12-1, Dimethyl-{2-[3-((S)-1-pyridin-2-yl-ethyl)-benzo[b]thiophen-2-yl]-ethyl}-amine]
  Ki: ≤ 1 µM

## CNCCc1sc2ccccc2c1C(C)c1ccccn1 (stereo not shown) [Compound 9-1, Methyl-{2-[3-(1-pyridin-2-yl-ethyl)-benzo[b]thiophen-2-yl]-ethyl}-amine]
  Ki: ≤ 1 µM

## CN(C)CCc1sc2ccccc2c1Cc1ccccn1 [Compound 13-3, Dimethyl-[2-(3-pyridin-2-ylmethyl-benzo[b]thiophen-2-yl)-ethyl]-amine]
  Ki: ≤ 1 µM

## C[C@@H](c1cncs1)c1c(CCN(C)C)sc2ccccc12 [Compound 17-3, Dimethyl-{2-[3-((R)-1-thiazol-5-yl-ethyl)-benzo[b]thiophen-2-yl]-ethyl}-amine]
  Ki: ≤ 1 µM

## CC(c1cncs1)c1c(CCN(C)C)sc2ccccc12 (stereo not shown) [Compound 17-2, Dimethyl-{2-[3-(1-thiazol-5-yl-ethyl)-benzo[b]thiophen-2-yl]-ethyl}-amine]
  Ki: ≤ 1 µM

## COc1cccnc1C(C)c1c(CCN(C)C)sc2ccccc12 (stereo not shown) [Compound 6-10, Dimethyl-(2-{3-[1-(3-methoxy-pyridin-2-yl)-ethyl]-benzo[b]thiophen-2-yl}-ethyl)-amine]
  Ki: ≤ 1 µM

## CC(c1cccnc1F)c1c(CCN(C)C)sc2ccccc12 (stereo not shown) [Compound 15-7, Dimethyl-(2-{3-[1-(2-fluoro-pyridin-3-yl)-ethyl]-benzo[b]thiophen-2-yl}-ethyl)-amine]
  Ki: ≤ 1 µM

## Cc1ccc2c([C@@H](C)c3ccccn3)c(CCN(C)C)sc2c1 [Compound 4-3, Dimethyl-{2-[6-methyl-3-((R)-1-pyridin-2-yl-ethyl)-benzo[b]thiophen-2-yl]-ethyl}-amine]
  Ki: ≤ 1 µM

## C[C@@H](c1ccccn1)c1c(CCN2CCC2)sc2ccccc12 [Compound 20-8, 2-{(R)-1-[2-(2-Azetidin-1-yl-ethyl)-benzo[b]thiophen-3-yl]-ethyl}-pyridine]
  Ki: ≤ 1 µM

## C[C@@H](c1ccccn1)c1c(CCN(C)C)sc2ccccc12 [Compound 12-2, Dimethyl-{2-[3-((R)-1-pyridin-2-yl-ethyl)-benzo[b]thiophen-2-yl]-ethyl}-amine]
  Ki: ≤ 1 µM

## CN(C)CCc1sc2ccccc2c1Cc1nccn1C [Compound 13-15, Dimethyl-{2-[3-(1-methyl-1H-imidazol-2-ylmethyl)-benzo[b]thiophen-2-yl]-ethyl}-amine]
  Ki: ≤ 1 µM

## C[C@H](c1cscn1)c1c(CCN2CCCC2)sc2ccccc12 [Compound 19-6, 4-{(S)-1-[2-(2-Pyrrolidin-1-yl-ethyl)-benzo[b]thiophen-3-yl]-ethyl}-thiazole]
  Ki: ≤ 1 µM

## CNCCc1sc2ccccc2c1[C@@H](C)c1ccccn1 [Compound 21-1, Methyl-{2-[3-((R)-1-pyridin-2-yl-ethyl)-benzo[b]thiophen-2-yl]-ethyl}-amine]
  Ki: ≤ 1 µM

## CC(c1ncccc1F)c1c(CCN(C)C)sc2ccccc12 (stereo not shown) [Compound 18-3, (2-{3-[1-(3-Fluoro-pyridin-2-yl)-ethyl]-benzo[b]thiophen-2-yl}-ethyl)-dimethyl-amine]
  Ki: ≤ 1 µM

## C=C(c1cccnc1)c1c(CCN(C)C)sc2ccccc12 [Compound 6-4, Dimethyl-{2-[3-(1-pyridin-3-yl-vinyl)-benzo[b]thiophen-2-yl]-ethyl}-amine]
  Ki: ≤ 1 µM

## CN(C)CCc1sc2ccccc2c1Cc1cccnc1F [Compound 24-2, {2-[3-(2-Fluoro-pyridin-3-ylmethyl)-benzo[b]thiophen-2-yl]-ethyl}-dimethyl-amine]
  Ki: ≤ 1 µM

## C[C@@H](c1ccc(F)cn1)c1c(CCN(C)C)sc2ccccc12 [Compound 7-4, (2-{3-[(R)-1-(5-Fluoro-pyridin-2-yl)-ethyl]-benzo[b]thiophen-2-yl}-ethyl)-dimethyl-amine]
  Ki: ≤ 1 µM

## CC(c1cscn1)c1c(CCN2CCCC2)sc2ccccc12 (stereo not shown) [Compound 19-4, 4-{1-[2-(2-Pyrrolidin-1-yl-ethyl)-benzo[b]thiophen-3-yl]-ethyl}-thiazole]
  Ki: ≤ 1 µM

## COc1ncccc1C(C)c1c(CCN(C)C)sc2ccccc12 (stereo not shown) [Compound 15-4, Dimethyl-(2-{3-[1-(2-methoxy-pyridin-3-yl)-ethyl]-benzo[b]thiophen-2-yl}-ethyl)-amine]
  Ki: ≤ 1 µM

## CC(c1ccccn1)c1c(CCN2CCC2)sc2ccccc12 (stereo not shown) [Compound 20-7, 2-{1-[2-(2-Azetidin-1-yl-ethyl)-benzo[b]thiophen-3-yl]-ethyl}-pyridine]
  Ki: ≤ 1 µM

## C=C(c1ccncc1)c1c(CCN(C)C)sc2ccccc12 [Compound 6-5, Dimethyl-{2-[3-(1-pyridin-4-yl-vinyl)-benzo[b]thiophen-2-yl]-ethyl}-amine]
  Ki: ≤ 1 µM
